Reference: the NIST ThermoML archive (doi:10.1016/j.jct.2008.10.002)

Tests used:
[1] = xn = mol fraction of the nth substance listed; conditions: 101.3 kPa, Liquid, Vibrating tube method
[2] = molar heat capacity at constant pressure; xn = mol fraction of the nth substance listed; conditions: 101.3 kPa, Liquid, Small sample (50 mg) DSC
[3] = excess molar enthalpy (molar enthalpy of mixing); xn = mol fraction of the nth substance listed; conditions: 303.15 K, 101.3 kPa, Liquid

CCOS(=O)(=O)[O-].CCn1cc[n+](C)c1 [1-ethyl-3-methylimidazolium ethyl sulfate] + O
Conditions | mass density, [1] [kg/m3] | molar heat capacity at constant pressure, [2] [J/K/mol]
293.15 K, x1 = 0.0477 | 1084.8 | 92.6
293.15 K, x1 = 0.1033 | 1138.7 | 109.8
293.15 K, x1 = 0.2048 | 1184.3 | 140.4
293.15 K, x1 = 0.2943 | 1203.3 | 167.1
293.15 K, x1 = 0.3847 | 1214.7 | 194.3
293.15 K, x1 = 0.4774 | 1222.5 | 222.7
293.15 K, x1 = 0.5797 | 1228.5 | 254.6
293.15 K, x1 = 0.6632 | 1232 | 281.3
293.15 K, x1 = 0.8092 | 1236.6 | 328.9
293.15 K, x1 = 0.907 | 1238.9 | 360.9
298.15 K, x1 = 0.0477 | 1082.3 | 92.9
298.15 K, x1 = 0.1033 | 1135.4 | 110.5
298.15 K, x1 = 0.2048 | 1180.8 | 141.4
298.15 K, x1 = 0.2943 | 1199.8 | 168.3
298.15 K, x1 = 0.3847 | 1211.3 | 195.7
298.15 K, x1 = 0.4774 | 1219.1 | 224.2
298.15 K, x1 = 0.5797 | 1225 | 256.2
298.15 K, x1 = 0.6632 | 1228.6 | 283.1
298.15 K, x1 = 0.8092 | 1233.2 | 330.9
298.15 K, x1 = 0.907 | 1235.5 | 363.1
303.15 K, x1 = 0.0477 | 1079.6 | 93.3
303.15 K, x1 = 0.1033 | 1132.1 | 111.2
303.15 K, x1 = 0.2048 | 1177.2 | 142.6
303.15 K, x1 = 0.2943 | 1196.3 | 169.7
303.15 K, x1 = 0.3847 | 1207.8 | 197.1
303.15 K, x1 = 0.4774 | 1215.6 | 225.8
303.15 K, x1 = 0.5797 | 1221.6 | 258
303.15 K, x1 = 0.6632 | 1225.2 | 285
303.15 K, x1 = 0.8092 | 1229.8 | 333
303.15 K, x1 = 0.907 | 1232.1 | 365.3
308.15 K, x1 = 0.0477 | 1076.9 | 93.6
308.15 K, x1 = 0.1033 | 1128.7 | 111.9
308.15 K, x1 = 0.2048 | 1173.6 | 143.7
308.15 K, x1 = 0.2943 | 1192.7 | 171
308.15 K, x1 = 0.3847 | 1204.3 | 198.6
308.15 K, x1 = 0.4774 | 1212.2 | 227.5
308.15 K, x1 = 0.5797 | 1218.2 | 259.9
308.15 K, x1 = 0.6632 | 1221.8 | 287.1
308.15 K, x1 = 0.8092 | 1226.4 | 335.3
308.15 K, x1 = 0.907 | 1228.7 | 367.7
313.15 K, x1 = 0.0477 | 1073.9 | 93.9
313.15 K, x1 = 0.1033 | 1125.3 | 112.7
313.15 K, x1 = 0.2048 | 1170 | 144.9
313.15 K, x1 = 0.2943 | 1189.2 | 172.4
313.15 K, x1 = 0.3847 | 1200.8 | 200.3
313.15 K, x1 = 0.4774 | 1208.7 | 229.3
313.15 K, x1 = 0.5797 | 1214.8 | 261.8
313.15 K, x1 = 0.6632 | 1218.4 | 289.2
313.15 K, x1 = 0.8092 | 1223 | 337.7
313.15 K, x1 = 0.907 | 1225.3 | 370.3
318.15 K, x1 = 0.0477 | 1071 | 94.4
318.15 K, x1 = 0.1033 | 1121.8 | 113.6
318.15 K, x1 = 0.2048 | 1166.4 | 146.2
318.15 K, x1 = 0.2943 | 1185.6 | 173.9
318.15 K, x1 = 0.3847 | 1197.3 | 202
318.15 K, x1 = 0.4774 | 1205.3 | 231.2
318.15 K, x1 = 0.5797 | 1211.3 | 263.9
318.15 K, x1 = 0.6632 | 1215 | 291.6
318.15 K, x1 = 0.8092 | 1219.6 | 340.3
318.15 K, x1 = 0.907 | 1221.9 | 373

[3]
Conditions | excess molar enthalpy [kcal/mol]
x1 = 0.0504 | -0.115
x1 = 0.0997 | -0.183
x1 = 0.1468 | -0.219
x1 = 0.2004 | -0.236
x1 = 0.2921 | -0.231
x1 = 0.3935 | -0.204
x1 = 0.4806 | -0.19
x1 = 0.5727 | -0.157
x1 = 0.6687 | -0.124
x1 = 0.8212 | -0.0681
